Source: patent publication US9833497B2, “Human originated EGF domain proteins and use of the same” (CHENGDU SOURCEBIO LIMITED-LIABILITY COMPANY, priority 2013, dated 2017)

Tests used:
Format in all cases: cell-based
Pseudomonas aeruginosa = test: MIC against Gram-negative bacteria: Pseudomonas aeruginosa; settings: 5×10^5 CFU/mL
In short: (§1)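 LB broth cultures at McFarland 0.5, spun down, resuspended, diluted to 5×10^5 CFU/mL final. Two-fold serial dilutions of purified human EGF domain proteins, triplicate. 37° C, 175 rpm shaking. Endpoint: no visible growth.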

Enterobacter cloacae = test: MIC against Gram-negative bacteria: Enterobacter cloacae; settings: 5×10^5 CFU/mL
In short: as §1

E. coli BL21 = test: MIC against Gram-negative bacteria: E. coli BL21; settings: 5×10^5 CFU/mL
In short: as §1

Aeromonas hydrophila = test: MIC against Gram-negative bacteria: Aeromonas hydrophila; settings: 5×10^5 CFU/mL
In short: as §1

Proteus vulgaris = test: MIC against Gram-negative bacteria: Proteus vulgaris; settings: 5×10^5 CFU/mL
In short: as §1

Proteus mirabilis = test: MIC against Gram-negative bacteria: Proteus mirabilis; settings: 5×10^5 CFU/mL
In short: as §1

Klebsiella pneumonia = test: MIC against Gram-negative bacteria: Klebsiella pneumonia; settings: 5×10^5 CFU/mL
In short: as §1

E. coli DH5α = test: Antibacterial activity: MIC and growth curve against E. coli DH5α in 96-well plate; settings: minimal inhibitory concentration against E. coli DH5α; 96-well plate, 5×10^5 CFU/mL, 37° C., judged after 8 h
In short: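 Log-phase DH5α (OD600 about 0.5, 37° C, 185 rpm in LB) was pelleted, resuspended in fresh LB and seeded at 5×10^5 CFU/mL with recombinant protein at 50, 25 and 12.5 μg/mL (two-fold series), in triplicate. Plates were shaken at 175 rpm, 37° C, and OD600 was read every 30 min. MIC was the lowest concentration with no growth.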

Moraxella catarrhalis = test: MIC against Gram-negative bacteria: Moraxella catarrhalis; settings: 5×10^5 CFU/mL
In short: as §1

Serratia marcescens = test: MIC against Gram-negative bacteria: Serratia marcescens; settings: 5×10^5 CFU/mL
In short: as §1

Citrobacter diversus = test: MIC against Gram-negative bacteria: Citrobacter diversus; settings: 5×10^5 CFU/mL
In short: as §1

[1] = E. coli BL21, 10 h cultivation at 37° C.
[2] = Pseudomonas aeruginosa, 96-well plate, 37° C., 10 h
[3] = Enterobacter cloacae, 96-well plate, 37° C., 10 h
[4] = E. coli BL21, 96-well plate, 37° C., 10 h
[5] = Aeromonas hydrophila, 96-well plate, 37° C., 10 h
[6] = Proteus vulgaris, 96-well plate, 37° C., 10 h
[7] = Proteus mirabilis, 96-well plate, 37° C., 10 h
[8] = Klebsiella pneumonia, 96-well plate, 37° C., 10 h
[9] = Moraxella catarrhalis, 96-well plate, 37° C., 10 h
[10] = Serratia marcescens, 96-well plate, 37° C., 10 h
[11] = Citrobacter diversus, 96-well plate, 37° C., 10 h

PRT1404 (RAACPVLCSGNGQYSKGRCLCFSGWKGTECD; listed as Homo sapiens)
25 µg/mL: MIC against E. coli BL21 (E. coli BL21; [1]) | MIC against A. hydrophila (Aeromonas hydrophila; Aeromonas hydrophila, 10 h cultivation at 37° C.) | MIC against P. vulgaris (Proteus vulgaris; Proteus vulgaris, 10 h cultivation at 37° C.) | MIC against K. pneumonia (Klebsiella pneumonia; Klebsiella pneumonia, 10 h cultivation at 37° C.) | MIC against M. catarrhalis (Moraxella catarrhalis; Moraxella catarrhalis, 10 h cultivation at 37° C.)
50 µg/mL: MIC against P. aeruginosa (Pseudomonas aeruginosa; Pseudomonas aeruginosa, 10 h cultivation at 37° C.) | MIC against S. marcescens (Serratia marcescens; Serratia marcescens, 10 h cultivation at 37° C.) | MIC against C. diversus (Citrobacter diversus; Citrobacter diversus, 10 h cultivation at 37° C.)
12.5 µg/mL: MIC against E. cloacae (Enterobacter cloacae; Enterobacter cloacae, 10 h cultivation at 37° C.) | MIC against P. mirabilis (Proteus mirabilis; Proteus mirabilis, 10 h cultivation at 37° C.) | MIC (E. coli DH5α)

PRT195 (MGYNCNATTKCKGKGICNNFGNCQCFPGHRPPDCK; listed as Homo sapiens)
12.5 µg/mL: MIC (μg/mL) E. cloacae (Enterobacter cloacae; E. cloacae, 10 h cultivation at 37° C.) | MIC (μg/mL) E. coli BL21 (E. coli BL21; [1]) | MIC (μg/mL) S. marcescens (Serratia marcescens; S. marcescens, 10 h cultivation at 37° C.) | MIC (μg/mL) C. diversus (Citrobacter diversus; C. diversus, 10 h cultivation at 37° C.)
25 µg/mL: MIC (μg/mL) P. vulgaris (Proteus vulgaris; P. vulgaris, 10 h cultivation at 37° C.) | MIC (E. coli DH5α) | MIC (μg/mL) M. catarrhalis (Moraxella catarrhalis; M. catarrhalis, 10 h cultivation at 37° C.)
50 µg/mL: MIC (μg/mL) P. aeruginosa (Pseudomonas aeruginosa; P. aeruginosa, 10 h cultivation at 37° C.) | MIC (μg/mL) A. hydrophila (Aeromonas hydrophila; A. hydrophila, 10 h cultivation at 37° C.) | MIC (μg/mL) P. mirabilis (Proteus mirabilis; P. mirabilis, 10 h cultivation at 37° C.) | MIC (μg/mL) K. pneumonia (Klebsiella pneumonia; K. pneumonia, 10 h cultivation at 37° C.)

PRT475 (VQNTCKDNPCGRGQCLITQSPPYYRCVCKHPYTGPSCS; listed as Homo sapiens)
50 µg/mL: MIC against P. aeruginosa (Pseudomonas aeruginosa; 96-well plate, 37° C., 10 h) | MIC against P. mirabilis (Proteus mirabilis; 96-well plate, 37° C., 10 h) | MIC (E. coli DH5α) | MIC against S. marcescens (Serratia marcescens; 96-well plate, 37° C., 10 h)
25 µg/mL: MIC against E. cloacae (Enterobacter cloacae; 96-well plate, 37° C., 10 h) | MIC against A. hydrophila (Aeromonas hydrophila; 96-well plate, 37° C., 10 h) | MIC against K. pneumonia (Klebsiella pneumonia; 96-well plate, 37° C., 10 h) | MIC against C. diversus (Citrobacter diversus; 96-well plate, 37° C., 10 h)
12.5 µg/mL: MIC against E. coli BL21 (E. coli BL21; 96-well plate, 37° C., 10 h) | MIC against P. vulgaris (Proteus vulgaris; 96-well plate, 37° C., 10 h) | MIC against M. catarrhalis (Moraxella catarrhalis; 96-well plate, 37° C., 10 h)

PRT1319 (SMGDCGPTGLAQHCHLHARCVSQEGVARCRCLDGFEGDGFS; listed as Homo sapiens)
50 µg/mL: MIC against E. coli BL21 (E. coli BL21; [4])
25 µg/mL: MIC against E. cloacae (Enterobacter cloacae; [3]) | MIC against A. hydrophila (Aeromonas hydrophila; [5]) | MIC against P. mirabilis (Proteus mirabilis; [7]) | MIC against K. pneumonia (Klebsiella pneumonia; [8]) | MIC against M. catarrhalis (Moraxella catarrhalis; [9])
12.5 µg/mL: MIC against P. aeruginosa (Pseudomonas aeruginosa; [2]) | MIC against P. vulgaris (Proteus vulgaris; [6]) | MIC (E. coli DH5α) | MIC against S. marcescens (Serratia marcescens; [10]) | MIC against C. diversus (Citrobacter diversus; [11])

PRT741 (SAHPCARDNGGCSHICIAKGDGTPRCSCPVHLVLLQNLLTCG; listed as Homo sapiens)
12.5 µg/mL: MIC P. aeruginosa (Pseudomonas aeruginosa; 96-well plate, 37° C., 10 h) | MIC A. hydrophila (Aeromonas hydrophila; 96-well plate, 37° C., 10 h) | MIC (E. coli DH5α) | MIC M. catarrhalis (Moraxella catarrhalis; 96-well plate, 37° C., 10 h) | MIC S. marcescens (Serratia marcescens; 96-well plate, 37° C., 10 h)
50 µg/mL: MIC E. cloacae (Enterobacter cloacae; 96-well plate, 37° C., 10 h) | MIC E. coli BL21 (E. coli BL21; 96-well plate, 37° C., 10 h) | MIC P. mirabilis (Proteus mirabilis; 96-well plate, 37° C., 10 h) | MIC C. diversus (Citrobacter diversus; 96-well plate, 37° C., 10 h)
25 µg/mL: MIC P. vulgaris (Proteus vulgaris; 96-well plate, 37° C., 10 h) | MIC K. pneumonia (Klebsiella pneumonia; 96-well plate, 37° C., 10 h)

PRT1309 (EVDPCAHGHGGCSPHANCTKVAPGQRTCTCQDGYMGDGELCQ; listed as Homo sapiens)
50 µg/mL: MIC against E. coli BL21 (E. coli BL21; [4]) | MIC against A. hydrophila (Aeromonas hydrophila; [5]) | MIC against P. vulgaris (Proteus vulgaris; [6]) | MIC against K. pneumonia (Klebsiella pneumonia; [8])
25 µg/mL: MIC against P. mirabilis (Proteus mirabilis; [7]) | MIC against S. marcescens (Serratia marcescens; [10]) | MIC against C. diversus (Citrobacter diversus; [11])
12.5 µg/mL: MIC against P. aeruginosa (Pseudomonas aeruginosa; [2]) | MIC against E. cloacae (Enterobacter cloacae; [3]) | MIC (E. coli DH5α) | MIC against M. catarrhalis (Moraxella catarrhalis; [9])

PRT451 (SFYCSCRPGYKLMSDKRTCVDIDE; listed as Homo sapiens)
50 µg/mL: MIC against E. coli BL21 (E. coli BL21; 96-well plate, 37° C., 10 h) | MIC against A. hydrophila (Aeromonas hydrophila; 96-well plate, 37° C., 10 h) | MIC against P. vulgaris (Proteus vulgaris; 96-well plate, 37° C., 10 h) | MIC against M. catarrhalis (Moraxella catarrhalis; 96-well plate, 37° C., 10 h)
25 µg/mL: MIC against P. aeruginosa (Pseudomonas aeruginosa; 96-well plate, 37° C., 10 h) | MIC against E. cloacae (Enterobacter cloacae; 96-well plate, 37° C., 10 h) | MIC (E. coli DH5α)
12.5 µg/mL: MIC against P. mirabilis (Proteus mirabilis; 96-well plate, 37° C., 10 h) | MIC against K. pneumonia (Klebsiella pneumonia; 96-well plate, 37° C., 10 h) | MIC against S. marcescens (Serratia marcescens; 96-well plate, 37° C., 10 h) | MIC against C. diversus (Citrobacter diversus; 96-well plate, 37° C., 10 h)
